In patent publication US9868705B2, “Tetra-aryl cyclobutane inhibitors of androgen receptor action for the treatment of hormone refractory cancer” (The Board of Trustees of the University of Illinois, priority 2013, dated 2018):
Substitutions are numbered along the chain they refer to. Like-named read-outs stand apart in the source and are kept apart here.

Experiments:
[1] = target: T1, T877A mutant androgen receptor (Homo sapiens, UniProt P10275, T878A); test: FKBP51 endogenous gene expression in LNCaP-XIP cells; type: cell-based
T1 construct: endogenous in cells; host or cells: LNCaP-XIP
T1 sequence (P10275 1-920 T878A): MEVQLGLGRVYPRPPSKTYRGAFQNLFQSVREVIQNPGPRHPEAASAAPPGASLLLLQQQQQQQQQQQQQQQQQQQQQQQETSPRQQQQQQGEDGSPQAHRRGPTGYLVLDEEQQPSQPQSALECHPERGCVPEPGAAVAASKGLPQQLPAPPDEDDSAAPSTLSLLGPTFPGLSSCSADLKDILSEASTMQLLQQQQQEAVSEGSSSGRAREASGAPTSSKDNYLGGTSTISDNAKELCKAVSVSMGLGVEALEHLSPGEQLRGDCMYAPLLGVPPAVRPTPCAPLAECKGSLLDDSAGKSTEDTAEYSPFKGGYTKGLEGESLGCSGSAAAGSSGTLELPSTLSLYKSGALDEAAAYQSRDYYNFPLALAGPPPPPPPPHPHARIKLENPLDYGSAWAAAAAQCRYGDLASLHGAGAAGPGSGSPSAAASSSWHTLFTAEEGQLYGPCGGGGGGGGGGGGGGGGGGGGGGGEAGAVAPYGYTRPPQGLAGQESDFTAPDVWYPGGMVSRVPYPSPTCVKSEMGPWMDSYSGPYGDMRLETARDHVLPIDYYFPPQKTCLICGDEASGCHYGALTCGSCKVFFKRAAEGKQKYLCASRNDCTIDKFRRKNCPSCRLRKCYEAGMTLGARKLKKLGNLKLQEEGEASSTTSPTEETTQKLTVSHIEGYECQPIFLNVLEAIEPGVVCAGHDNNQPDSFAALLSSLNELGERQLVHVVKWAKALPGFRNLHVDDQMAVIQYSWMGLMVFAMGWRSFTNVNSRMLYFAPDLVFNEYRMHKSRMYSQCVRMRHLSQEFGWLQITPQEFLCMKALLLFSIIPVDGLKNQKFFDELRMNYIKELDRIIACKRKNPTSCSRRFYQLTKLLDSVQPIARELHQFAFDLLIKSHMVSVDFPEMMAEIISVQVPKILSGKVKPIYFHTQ
Text: (§1) FIG. 44 depicts data for dose-dependent inhibition of androgen receptor-dependent endogenous gene expression of FKBP51 by Compound 1 of Example IV in LNCaP cells producing exclusively T877A mutant androgen receptor (LNCaP-XIP) and LNCaP cells transfected with wild type androgen receptor (LNCaP-androgen receptor, ratio of wild type to T877A receptor is ca. 3:1).
(§2) To more fully characterize the selectivity of compound 1 for the mutant receptor, we measured its inhibitory potential against the WT and T877A mutant receptor in an AR-dependent luciferase transcription assay in CV-1 cells (FIGS. 43A and B).

[2] = system: wild type androgen receptor; test: FKBP51 endogenous gene expression in LNCaP-AR cells (wild type AR overexpressed); type: cell-based, human; conditions: at 20 M (so in the source)
Text: as §1, §2

wild type AR = target: T2, wild type AR (Homo sapiens, UniProt P10275); test: MMTV-luciferase transcription assay in CV-1 cells, wild type AR; type: cell-based; conditions: wild type AR; values given in μM; read-out: MMTV transcription assay in CV-1 cells WT (IC50)
T2 construct: expressed in transfected cells; host or cells: CV-1
T2 sequence (P10275 1-920): T1 sequence (P10275 1-920 T878A) with A878T
Text: (§3) These compounds were screened using an AR-responsive MMTV transcription assay in CV-1 cells, utilizing both wild type and T877A (LNCaP) AR. […]

T877A (LNCaP) AR = target: T3, T877A (LNCaP) AR (Homo sapiens, UniProt P10275, T878A); test: MMTV-luciferase transcription assay in CV-1 cells, T877A AR; type: cell-based
T3 construct: expressed in transfected cells; host or cells: CV-1
T3 sequence (P10275 1-920 T878A): T1 sequence (P10275 1-920 T878A)
Text: as §3

VCaP cells = test: VCaP cell proliferation; type: cell-based
[3] = system: LNCaP and VCaP cell lines; test: General toxicity screen in LNCaP and VCaP cell lines; type: cell-based, human; conditions: at concentrations as high as 25 μM
AR-VP16 construct = test: MMTV-luciferase reporter gene assay with AR-VP16 construct (AR/DNA binding); type: cell-based
Text: (§4) Accordingly, we analyzed the disruption of AR/DNA binding using a luciferase reporter gene assay transfected with an AR-VP16 construct that is constitutively active upon DNA binding, regardless of the ability of AR to recruit transcriptional machinery (FIG. 40A). Simultaneously, we examined CV-1 cells transfected with an AR construct that is only transcriptionally active when there is a positive interaction between the NTD and C-terminal LBD ([…]) (FIG. 40B).

AR NTD/LBD interaction = target: T4, AR NTD/LBD interaction (Homo sapiens, UniProt P10275); test: AR NTD/LBD interaction reporter assay in CV-1 cells; type: cell-based
T4 construct: expressed in transfected cells; host or cells: CV-1
T4 sequence (P10275 1-920): T1 sequence (P10275 1-920 T878A) with A878T
Text: as §4

AR = target: T5, AR (Homo sapiens, UniProt P10275); test: Western blot analysis of AR degradation; type: cell-based
T5 sequence (P10275 1-920): T1 sequence (P10275 1-920 T878A) with A878T

LNCaP cells = test: LNCaP cell proliferation

`COc1cc([C@H]2[C@H](c3ccccc3)[C@H](c3cc(OC)nc(OC)n3)[C@H]2c2ccccc2)nc(OC)n1` [CB-22] was tested, and the “concentration at which maximal inhibition is obtained” value ([1]; FKBP51 expression, T877A mutant receptor) was 2 µM, the “inhibition of FKBP51 gene expression” value ([1]; LNCaP-XIP, 2 μM) was “complete inhibition” and the “inhibition of FKBP51 gene expression” value [2] was “approximately 50%”. For the same molecule, the IC50 (wild type AR) was 18 µM, the “increase in potency for T877A mutant over WT” value (T877A (LNCaP) AR; AR-dependent luciferase transcription assay in CV-1 cells) was “approximately 10 fold” and the IC50 (T877A (LNCaP) AR; CV1 transient transfection, MMTV-Luciferase reporter, read-out: IC50 T877A) was 0.81 µM. For the same molecule, the IC50 (T877A (LNCaP) AR; T877A AR, values given in μM, read-out: MMTV transcription assay in CV-1 cells T877A (IC50)) was 1.1 µM, the “inhibition of VCaP cell proliferation” value (VCaP cells) was “slow cell-growth in a dose-dependent manner” and the toxicity [3] was “complete lack of toxicity”. The “inhibition of AR/DNA binding” value (AR-VP16 construct) was “inhibitory activity”, the “inhibition of the NTD/LBD interaction” value (AR NTD/LBD interaction) was “inhibitory activity” and the “rate of receptor proteolysis” value (AR) was “does not influence the rate of receptor proteolysis”. For the same molecule, the “more potent in LNCaP cells than in VCaP cells (anti-proliferative activity)” value (LNCaP cells; LNCaP vs VCaP) was 10-15 fold and the “inhibition of LNCaP cell proliferation” value (LNCaP cells; androgen-stimulated LNCaP cells) was “slow cell-growth in a dose-dependent manner”.
